Measured values: patent US11427558B1, “Indazoles and azaindazoles as LRRK2 inhibitors” (ESCAPE Bio, Inc., priority 2019, dated 2022)

Experiments:
[1] = molecular target: Recombinant wild type LRRK2 protein (Homo sapiens (Human), UniProt Q5S007); assay: LRRK2 kinase activity, LanthaScreen TR-FRET assay (wild type); type: biochemical; details: LRRKtide 400 nM, 25 μM ATP, 60 min; read-out: LRRK2 WT IC50
How it was run: (§1)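 Recombinant human wild-type or G2019S LRRK2 phosphorylated fluorescein-labelled LRRKtide (ERM-based) with ATP and serially diluted compound for 60 min at room temperature.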

[2] = molecular target: Recombinant G2019S-LRRK2 protein (Homo sapiens (Human), UniProt Q5S007, G2019S); assay: LRRK2 kinase activity, LanthaScreen TR-FRET assay (G2019S); type: biochemical; details: LRRKtide 400 nM, 25 μM ATP, 60 min
How it was run: as §1

Recombinant wild type LRRK2 protein, sequence (Q5S007 whole entry): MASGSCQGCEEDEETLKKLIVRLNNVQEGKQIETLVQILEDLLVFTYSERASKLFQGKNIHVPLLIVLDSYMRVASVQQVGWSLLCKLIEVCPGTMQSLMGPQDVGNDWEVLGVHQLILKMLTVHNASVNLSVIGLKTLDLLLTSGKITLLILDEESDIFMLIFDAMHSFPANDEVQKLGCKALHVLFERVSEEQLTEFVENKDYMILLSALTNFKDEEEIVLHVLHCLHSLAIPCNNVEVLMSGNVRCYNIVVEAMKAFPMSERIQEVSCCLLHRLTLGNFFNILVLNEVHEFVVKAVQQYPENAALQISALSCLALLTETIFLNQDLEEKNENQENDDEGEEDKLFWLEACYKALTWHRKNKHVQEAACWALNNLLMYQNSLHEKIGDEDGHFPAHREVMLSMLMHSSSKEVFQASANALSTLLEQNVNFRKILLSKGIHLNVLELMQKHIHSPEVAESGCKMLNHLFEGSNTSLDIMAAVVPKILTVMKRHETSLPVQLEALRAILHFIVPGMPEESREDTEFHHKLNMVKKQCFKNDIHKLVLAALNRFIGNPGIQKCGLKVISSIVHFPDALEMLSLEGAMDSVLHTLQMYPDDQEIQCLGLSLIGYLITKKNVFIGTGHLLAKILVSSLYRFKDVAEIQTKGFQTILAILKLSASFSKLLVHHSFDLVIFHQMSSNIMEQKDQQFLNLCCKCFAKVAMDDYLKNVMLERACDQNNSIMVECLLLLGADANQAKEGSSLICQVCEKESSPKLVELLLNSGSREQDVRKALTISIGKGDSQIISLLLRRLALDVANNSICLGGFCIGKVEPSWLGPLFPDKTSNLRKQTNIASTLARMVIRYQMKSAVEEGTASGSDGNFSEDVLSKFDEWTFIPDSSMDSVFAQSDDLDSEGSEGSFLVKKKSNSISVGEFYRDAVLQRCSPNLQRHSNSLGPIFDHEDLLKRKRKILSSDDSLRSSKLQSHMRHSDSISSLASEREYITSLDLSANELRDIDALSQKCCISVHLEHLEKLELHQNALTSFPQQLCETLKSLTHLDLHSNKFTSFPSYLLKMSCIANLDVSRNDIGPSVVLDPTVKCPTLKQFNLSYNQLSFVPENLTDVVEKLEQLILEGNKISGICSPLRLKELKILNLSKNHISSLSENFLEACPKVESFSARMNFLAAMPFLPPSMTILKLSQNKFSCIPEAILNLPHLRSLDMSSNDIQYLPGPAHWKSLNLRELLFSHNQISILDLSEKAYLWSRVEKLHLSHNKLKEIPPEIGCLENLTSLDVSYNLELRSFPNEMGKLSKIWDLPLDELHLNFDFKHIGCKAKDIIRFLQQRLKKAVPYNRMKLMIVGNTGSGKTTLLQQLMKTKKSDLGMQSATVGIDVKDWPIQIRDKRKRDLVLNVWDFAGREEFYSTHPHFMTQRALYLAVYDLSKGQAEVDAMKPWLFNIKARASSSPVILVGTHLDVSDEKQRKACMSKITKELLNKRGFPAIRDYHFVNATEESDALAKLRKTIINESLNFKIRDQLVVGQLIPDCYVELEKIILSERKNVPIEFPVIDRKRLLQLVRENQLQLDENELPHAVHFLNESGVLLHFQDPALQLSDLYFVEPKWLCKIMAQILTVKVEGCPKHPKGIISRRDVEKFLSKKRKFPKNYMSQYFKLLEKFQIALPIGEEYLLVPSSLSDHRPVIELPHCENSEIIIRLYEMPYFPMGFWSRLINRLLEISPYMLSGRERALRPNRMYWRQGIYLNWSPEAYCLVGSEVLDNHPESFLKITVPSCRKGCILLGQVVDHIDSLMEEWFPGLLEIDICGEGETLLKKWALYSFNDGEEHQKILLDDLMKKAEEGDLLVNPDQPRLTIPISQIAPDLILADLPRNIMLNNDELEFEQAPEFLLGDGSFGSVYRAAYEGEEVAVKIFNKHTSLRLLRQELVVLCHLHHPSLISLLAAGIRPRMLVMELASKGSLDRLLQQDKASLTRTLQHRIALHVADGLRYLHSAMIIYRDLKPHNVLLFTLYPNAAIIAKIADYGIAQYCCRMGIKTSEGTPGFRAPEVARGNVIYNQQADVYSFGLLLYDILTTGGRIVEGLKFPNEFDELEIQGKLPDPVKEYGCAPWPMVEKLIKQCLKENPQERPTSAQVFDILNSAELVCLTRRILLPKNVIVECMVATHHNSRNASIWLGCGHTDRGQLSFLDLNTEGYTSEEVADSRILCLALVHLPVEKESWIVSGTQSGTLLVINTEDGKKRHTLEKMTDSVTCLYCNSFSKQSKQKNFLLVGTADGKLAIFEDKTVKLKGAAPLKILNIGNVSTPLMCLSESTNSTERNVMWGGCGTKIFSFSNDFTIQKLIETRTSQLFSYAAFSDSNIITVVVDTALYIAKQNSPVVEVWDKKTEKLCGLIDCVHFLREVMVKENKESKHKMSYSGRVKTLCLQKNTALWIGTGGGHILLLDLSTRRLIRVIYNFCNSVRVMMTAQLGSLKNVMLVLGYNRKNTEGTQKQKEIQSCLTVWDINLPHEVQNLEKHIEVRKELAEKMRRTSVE
Recombinant G2019S-LRRK2 protein, sequence (Q5S007 whole entry G2019S): as the sequence (Q5S007 whole entry) above, with G2019S counted along it

Compound	IC50 [1]	IC50 [2]
Cc1c(C#N)cnc(C(=O)Nc2ccc3[nH]nc(-c4cnn(C(F)(F)F)c4)c3c2)c1C [Example 169, 5-Cyano-3,4-dimethyl-N-(3-(1-(trifluoromethyl)-1H-pyrazol-4-yl)-1H-indazol-5-yl)picolinamide]	< 100 nM	< 100 nM
COc1cc(-c2n[nH]c3ccc(NC(=O)c4ccnc(C#N)c4F)cc23)ccn1 [Example 170, 2-Cyano-3-fluoro-N-(3-(2-methoxypyridin-4-yl)-1H-indazol-5-yl)isonicotinamide]	100 to 1000 nM	< 100 nM
Cc1c(C#N)cnc(C(=O)Nc2ccc3[nH]nc(-c4cncc(Cl)c4)c3c2)c1C [Example 171, N-(3-(5-Chloropyridin-3-yl)-1H-indazol-5-yl)-5-cyano-3,4-dimethylpicolinamide]	< 100 nM	< 100 nM
Cc1c(C#N)cnc(C(=O)Nc2ccc3[nH]nc(-c4cnn(CF)c4)c3c2)c1C [Example 172, 5-Cyano-N-(3-(1-(fluoromethyl)-1H-pyrazol-4-yl)-1H-indazol-5-yl)-3,4-dimethylpicolinamide]	< 100 nM	< 100 nM
N#Cc1cccc(C(=O)Nc2ccc3[nH]nc(-c4ccoc4)c3c2)c1C(F)(F)F [Example 173, 3-Cyano-N-(3-(furan-3-yl)-1H-indazol-5-yl)-2-(trifluoromethyl)benzamide]	< 100 nM	< 100 nM
Cc1ncc(-c2n[nH]c3ccc(NC(=O)c4ncc(C#N)c(C)c4C)cc23)o1 [Example 174, 5-Cyano-3,4-dimethyl-N-(3-(2-methyloxazol-5-yl)-1H-indazol-5-yl)picolinamide]	< 100 nM	< 100 nM
Cc1c(C(=O)Nc2ccc3[nH]nc(-c4cnn(C(F)F)c4)c3c2)nc(Cl)c(C#N)c1C [Example 175, 6-Chloro-5-cyano-N-(3-(1-(difluoromethyl)-1H-pyrazol-4-yl)-1H-indazol-5-yl)-3,4-dimethylpicolinamide]	< 100 nM	< 100 nM
COc1c(C#N)cccc1C(=O)Nc1ccc2[nH]nc(-c3cnco3)c2c1 [Example 176, 3-Cyano-2-methoxy-N-(3-(oxazol-5-yl)-1H-indazol-5-yl)benzamide]	< 100 nM	< 100 nM
Cc1ccc(C#N)c(F)c1C(=O)Nc1ccc2[nH]nc(-c3cnn(C(F)F)c3)c2c1 [Example 177, 3-Cyano-N-(3-(1-(difluoromethyl)-1H-pyrazol-4-yl)-1H-indazol-5-yl)-2-fluoro-6-methylbenzamide]	< 100 nM	< 100 nM
COc1cc(-c2n[nH]c3ccc(NC(=O)c4ncc(C#N)cc4C(F)(F)F)cc23)ccn1 [Example 178, 5-Cyano-N-(3-(2-methoxypyridin-4-yl)-1H-indazol-5-yl)-3-(trifluoromethyl)picolinamide]	< 100 nM	< 100 nM
Cc1c(C(=O)Nc2ccc3[nH]nc(-c4ccoc4)c3c2)noc1C#N [Example 179, 5-Cyano-N-(3-(furan-3-yl)-1H-indazol-5-yl)-4-methylisoxazole-3-carboxamide]	< 100 nM	< 100 nM
Cc1c(C#N)noc1C(=O)Nc1ccc2[nH]nc(-c3ccoc3)c2c1 [Example 180, 3-Cyano-N-(3-(furan-3-yl)-1H-indazol-5-yl)-4-methylisoxazole-5-carboxamide]	100 to 1000 nM	100 to 1000 nM
Cc1c(C#N)cnc(C(=O)Nc2ccc3[nH]nc(-c4cnc(C(C)C)o4)c3c2)c1C [Example 181, 5-Cyano-N-(3-(2-isopropyloxazol-5-yl)-1H-indazol-5-yl)-3,4-dimethylpicolinamide]	< 100 nM	< 100 nM
Cc1cccc(-c2n[nH]c3ccc(NC(=O)c4ncc(C#N)c(C)c4C)cc23)n1 [Example 182, 5-Cyano-3,4-dimethyl-N-(3-(6-methylpyridin-2-yl)-1H-indazol-5-yl)picolinamide]	100 to 1000 nM	< 100 nM
Cc1c(C#N)cnc(C(=O)Nc2ccc3[nH]nc(-c4cn[nH]c4)c3c2)c1C [Example 183, N-(3-(1H-Pyrazol-4-yl)-1H-indazol-5-yl)-5-cyano-3,4-dimethylpicolinamide]	< 100 nM	< 100 nM
Cc1c(C(=O)Nc2ccc3[nH]nc(-c4cnco4)c3c2)nc(Cl)c(C#N)c1C [Example 184, 6-Chloro-5-cyano-3,4-dimethyl-N-(3-(oxazol-5-yl)-1H-indazol-5-yl)picolinamide]	< 100 nM	< 100 nM
Cc1nc(C(=O)Nc2ccc3[nH]nc(-c4cnn(C(F)F)c4)c3c2)c(C)c(C)c1C#N [Example 185, 5-Cyano-N-(3-(1-(difluoromethyl)-1H-pyrazol-4-yl)-1H-indazol-5-yl)-3,4,6-trimethylpicolinamide]	< 100 nM	< 100 nM
Cc1c(C#N)cnc(C(=O)Nc2ccc3[nH]nc(-c4ccn(C)c4)c3c2)c1C [Example 186, 5-cyano-3,4-dimethyl-N-(3-(1-methyl-1H-pyrrol-3-yl)-1H-indazol-5-yl)picolinamide]	< 100 nM	< 100 nM

Compound	IC50 [1]	IC50 [2]
Cc1c(C#N)cnc(C(=O)Nc2ccc3[nH]nc(-c4cnn(C)c4)c3c2)c1C [Example 187, 5-Cyano-3,4-dimethyl-N-(3-(1-methyl-1H-pyrazol-4-yl)-1H-indazol-5-yl)picolinamide]	< 100 nM	< 100 nM
N#Cc1ccc(F)c(C(=O)Nc2ccc3[nH]nc(-c4cnco4)c3c2)c1F [Example 188, 3-Cyano-2,6-difluoro-N-(3-(oxazol-5-yl)-1H-indazol-5-yl)benzamide]	< 100 nM	< 100 nM
COc1cc(C#N)ccc1C(=O)Nc1ccc2[nH]nc(-c3cnn(C(F)F)c3)c2c1 [Example 189, 4-Cyano-N-(3-(1-(difluoromethyl)-1H-pyrazol-4-yl)-1H-indazol-5-yl)-2-methoxybenzamide]	< 100 nM	< 100 nM
Cc1cc(C#N)cc(F)c1C(=O)Nc1ccc2[nH]nc(-c3cnco3)c2c1 [Example 190, 4-Cyano-2-fluoro-6-methyl-N-(3-(oxazol-5-yl)-1H-indazol-5-yl)benzamide]	< 100 nM	< 100 nM
Cc1cc(-c2n[nH]c3ccc(NC(=O)c4ncc(C#N)c(C)c4C)cc23)cc(C)n1 [Example 191, 5-Cyano-N-(3-(2,6-dimethylpyridin-4-yl)-1H-indazol-5-yl)-3,4-dimethylpicolinamide]	< 100 nM	< 100 nM
N#Cc1cccc(C(=O)Nc2ccc3[nH]nc(-c4cnn(C(F)F)c4)c3c2)c1C(F)(F)F [Example 192, 3-Cyano-N-(3-(1-(difluoromethyl)-1H-pyrazol-4-yl)-1H-indazol-5-yl)-2-(trifluoromethyl)benzamide]	< 100 nM	< 100 nM
Cc1ccc(C#N)c(C)c1C(=O)Nc1ccc2[nH]nc(-c3cnn(C(F)F)c3)c2c1 [Example 193, 3-Cyano-N-(3-(1-(difluoromethyl)-1H-pyrazol-4-yl)-1H-indazol-5-yl)-2,6-dimethylbenzamide]	< 100 nM	< 100 nM
COc1cc(-c2n[nH]c3ccc(NC(=O)c4c(C)c(C#N)nn4C)cc23)ccn1 [Example 194, 3-Cyano-N-(3-(2-methoxypyridin-4-yl)-1H-indazol-5-yl)-1,4-dimethyl-1H-pyrazole-5-carboxamide]	100 to 1000 nM	< 100 nM
Cc1c(C#N)nn(C)c1C(=O)Nc1ccc2[nH]nc(-c3cnn(C(F)F)c3)c2c1 [Example 195, 3-Cyano-N-(3-(1-(difluoromethyl)-1H-pyrazol-4-yl)-1H-indazol-5-yl)-1,4-dimethyl-1H-pyrazole-5-carboxamide]	< 100 nM	< 100 nM
Cc1c(C#N)nn(C)c1C(=O)Nc1ccc2[nH]nc(-c3cnoc3)c2c1 [Example 196, 3-Cyano-N-(3-(isoxazol-4-yl)-1H-indazol-5-yl)-1,4-dimethyl-1H-pyrazole-5-carboxamide]	100 to 1000 nM	< 100 nM
Cc1coc(-c2n[nH]c3ccc(NC(=O)c4ncc(C#N)c(C)c4C)cc23)n1 [Example 197, 5-Cyano-3,4-dimethyl-N-(3-(4-methyloxazol-2-yl)-1H-indazol-5-yl)picolinamide]	100 to 1000 nM	< 100 nM
Cc1c(C#N)cnc(C(=O)Nc2ccc3[nH]nc(-c4ncco4)c3c2)c1C [Example 198, 5-Cyano-3,4-dimethyl-N-(3-(oxazol-2-yl)-1H-indazol-5-yl)picolinamide]	100 to 1000 nM	< 100 nM
N#Cc1cccc(C(=O)Nc2ccc3[nH]nc(-c4cnco4)c3c2)c1F [Example 199, 3-Cyano-2-fluoro-N-(3-(oxazol-5-yl)-1H-indazol-5-yl)benzamide]	< 100 nM	< 100 nM
COc1cc(C#N)ccc1C(=O)Nc1ccc2[nH]nc(-c3cnco3)c2c1 [Example 200, 4-Cyano-2-methoxy-N-(3-(oxazol-5-yl)-1H-indazol-5-yl)benzamide]	< 100 nM	< 100 nM
COc1cc(C#N)cc(C)c1C(=O)Nc1ccc2[nH]nc(-c3cnn(C(F)F)c3)c2c1 [Example 201, 4-Cyano-N-(3-(1-(difluoromethyl)-1H-pyrazol-4-yl)-1H-indazol-5-yl)-2-methoxy-6-methylbenzamide]	< 100 nM	< 100 nM
Cc1nc(C(=O)Nc2ccc3[nH]nc(-c4cnco4)c3c2)c(C)c(C)c1C#N [Example 202, 5-Cyano-3,4,6-trimethyl-N-(3-(oxazol-5-yl)-1H-indazol-5-yl)picolinamide]	< 100 nM	< 100 nM
Cc1ccc(C#N)c(F)c1C(=O)Nc1ccc2[nH]nc(-c3cnco3)c2c1 [Example 203, 3-Cyano-2-fluoro-6-methyl-N-(3-(oxazol-5-yl)-1H-indazol-5-yl)benzamide]	< 100 nM	< 100 nM
Cc1c(C#N)cnc(C(=O)Nc2ccc3[nH]nc(-c4ccn(C(F)F)n4)c3c2)c1C [Example 204, 5-Cyano-N-(3-(1-(difluoromethyl)-1H-pyrazol-3-yl)-1H-indazol-5-yl)-3,4-dimethylpicolinamide]	100 to 1000 nM	< 100 nM
